Assay results as given in EPA's ToxValDB 9.5 (doi:10.2903/j.efsa.2011.2162).
Values after ≈ are worked out from the molar mass of the structure shown.

What was measured:
Lepomis macrochirus = details: acute; duration: 96 hours; mortality
Aphidius rhopalosiphi [1] = details: not reported; reproduction
Apis mellifera = details: acute; duration: 48 hours; dermal; mortality
Tagia sp. = details: acute; mortality
Oncorhynchus mykiss = details: chronic/long-term; duration: 96 days; growth
Coturnix japonica = details: acute; oral; diet; mortality
Cyprinodon variegatus = details: acute; duration: 96 hours; mortality
Daphnia magna = details: chronic/long-term; duration: 21 days; reproduction
Aphidius rhopalosiphi [2] = assay: LR50; higher = less toxic; details: acute; duration: 48 hours; mortality
[3] = reproduction developmental, reproduction

Structure (SMILES): COP(=S)(OC)SCN1C(=O)c2ccccc2C1=O [Phosmet]
- NOAEL (Rattus norvegicus; acute, neurology): 4.5 mg/kg-day
- LD50 (Rattus norvegicus; acute, oral, mortality): 113 mg/kg
- NOAEL (Rattus norvegicus; [3]): 1 mg/kg-day
- NOAEL (Rattus norvegicus; subchronic, duration: 13 weeks, neurology): 1.5 mg/kg-day
- NOAEL (Rattus norvegicus; subchronic, duration: 90 days, oral, other): 2 mg/kg-day
- LC50 (Lepomis macrochirus): 0.0197 mg/L (≈ 0.0621 µM)
- LEL (Aphidius rhopalosiphi [1]): 1.41 g/ha
- LD50 (Apis mellifera): 0.22 µg/piece
- LC50 (Tagia sp.): 104 mg/kg
- NOEC (Oncorhynchus mykiss): 0.0032 mg/L
- LC50 (Coturnix japonica): 406 mg/kg-day
- LC50 (Cyprinodon variegatus): 0.17 mg/L (≈ 0.536 µM)
- LD50 (Colinus virginianus; acute, oral, mortality): 57 mg/kg
- NOEC (Colinus virginianus; [3]): 7.5 mg/kg-day
- NOEC (Daphnia magna): 0.00078 mg/L
- LR50 (Aphidius rhopalosiphi [2]): 1.95 g/ha
